# From US20110015119A1, “NOVEL SEMI-SYNTHETIC GLYCOPEPTIDES AS ANTIBACTERIAL AGENTS” (LEAD THERAPEUTICS, INC., priority 2009, published 2011)
# Read-outs that look alike come from different tables or passages of the source.
# How the values were obtained:
# Assay type in all cases: cell-based
# [1] = tested on: Streptococcus pneumoniae 1195 (ATCC 49619); experiment: MIC by broth microdilution, SPNE 1195
# Method in brief: (§1)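 Per CLSI: serial twofold handling automated, Mueller-Hinton broth, clinical isolate inoculum, MIC recorded.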
# [2] = tested on: Staphylococcus aureus 757 (MRSA); experiment: MIC by broth microdilution, SA 757; settings: read-out: MIC SA 757
# Method in brief: as §1
# [3] = tested on: Staphylococcus aureus 100 (ATCC 29213); experiment: MIC by broth microdilution, SA 100
# Method in brief: as §1
# [4] = tested on: Streptococcus pyogenes 712; experiment: MIC by broth microdilution, SPY 712
# Method in brief: as §1
# [5] = tested on: Staphylococcus epidermidis 831 (MRSE); experiment: MIC by broth microdilution, SE 831; settings: read-out: MIC SE 831
# Method in brief: as §1
# [6] = tested on: Staphylococcus aureus 2012 (VISA); experiment: MIC by broth microdilution, SA 2012; settings: class symbols
# Method in brief: as §1
# [7] = tested on: Enterococcus faecalis 848 (VRE, Van A); experiment: MIC by broth microdilution, EFc 848; settings: class symbols
# Method in brief: as §1
# [8] = tested on: Enterococcus faecium 800; experiment: MIC by broth microdilution, EFcm 800
# Method in brief: as §1
# [9] = tested on: Enterococcus faecalis 101 (ATCC 29212); experiment: MIC by broth microdilution, EFc 101; settings: class symbols
# Method in brief: as §1
# [10] = tested on: Enterococcus faecium 752 (VRE, Van A); experiment: MIC by broth microdilution, EFcm 752; settings: class symbols
# Method in brief: as §1
# [11] = tested on: Staphylococcus epidermidis 835; experiment: MIC by broth microdilution, SE 835
# Method in brief: as §1
# [12] = ATCC49619, Streptococcus pneumoniae 1195 (ATCC 49619), class symbols, read-out: MIC S PNE 1195
# [13] = Staphylococcus aureus 757 (MRSA), class symbols
# [14] = ATCC29213, Staphylococcus aureus 100 (ATCC 29213), class symbols, read-out: MIC SA 100
# [15] = Streptococcus pyogenes 712, class symbols, read-out: MIC S PYO 712
# [16] = Staphylococcus epidermidis 831 (MRSE), class symbols
# [17] = Staphylococcus aureus 2012 (VISA), read-out: MIC SA 2012
# [18] = Enterococcus faecalis 848 (VRE, Van A), read-out: MIC E FC 848
# [19] = Enterococcus faecium 800, class symbols, read-out: MIC E FCM 800
# [20] = ATCC29212, Enterococcus faecalis 101 (ATCC 29212), read-out: MIC E FC 101
# [21] = Enterococcus faecium 752 (VRE, Van A), read-out: MIC E FCM 752
# [22] = Staphylococcus epidermidis 835, class symbols, read-out: MIC SE 835
# [23] = Streptococcus pneumoniae, ATCC49619, read-out: MIC S PNE 1195
# [24] = Staphylococcus aureus, ATCC29213, read-out: MIC SA 100
# [25] = Streptococcus pyogenes, 712, read-out: MIC S PYO 712
# [26] = Staphylococcus epidermidis, MRSE
# [27] = Staphylococcus aureus, VISA, read-out: MIC SA 2012, Staphylococcus aureus 2012 (VISA)
# [28] = Enterococcus faecalis, VRE, read-out: MIC E FC 848, Enterococcus faecalis 848 (VRE, Van A)
# [29] = Enterococcus faecium, 800, read-out: MIC E FCM 800
# [30] = Enterococcus faecalis, ATCC29212, read-out: MIC E FC 101, Enterococcus faecalis 101 (ATCC 29212)
# [31] = Enterococcus faecium, VRE, read-out: MIC E FCM 752, Enterococcus faecium 752 (VRE, Van A)
# [32] = Staphylococcus epidermidis, 835, read-out: MIC SE 835
"MIC [1, 12]","MIC [2, 13]","MIC [3, 14]","MIC [4, 15]","MIC [5, 16]","MIC [6, 17]","MIC [7, 18]","MIC [8, 19]","MIC [9, 20]","MIC [10, 21]","MIC [11, 22]",SMILES,"MIC [1, 23]","MIC ([2]; Staphylococcus aureus, MRSA)","MIC [3, 24]","MIC [4, 25]","MIC [5, 26]","MIC [6, 27]","MIC [7, 28]","MIC [8, 29]","MIC [9, 30]",other results
0.01 to 0.5 µg/mL,0.01 to 0.5 µg/mL,0.01 to 0.5 µg/mL,0.01 to 0.5 µg/mL,0.01 to 0.5 µg/mL,0.01 to 0.5 µg/mL,> 16 µg/mL,0.01 to 0.5 µg/mL,0.01 to 0.5 µg/mL,4 to 8 µg/mL,0.01 to 0.5 µg/mL,"CCCCCCc1ccc(S(=O)(=O)NCCCCCCNCc2c(O)cc3c(c2O)-c2cc(ccc2O)[C@H]2NC(=O)[C@@H]4NC(=O)[C@H](CC(N)=O)NC(=O)[C@H](NC(=O)[C@@H](CC(C)C)NC)[C@H](O)c5ccc(c(Cl)c5)Oc5cc4cc(c5O[C@@H]4O[C@H](CO)[C@@H](O)[C@H](O)[C@H]4O[C@H]4C[C@](C)(NC(N)=O)[C@H](OC(N)=O)[C@H](C)O4)Oc4ccc(cc4Cl)[C@@H](O)[C@H](NC2=O)C(=O)N[C@@H]3C(=O)O)cc1 (atropisomer, axis not shown) [Compound 370]",–,–,–,–,–,–,–,–,–,–
–,–,–,–,–,–,–,–,–,–,–,"CCCCCCc1ccc(S(=O)(=O)NCCCCCNC(=O)Oc2cc(O)c3c(c2)[C@@H](C(=O)O)NC(=O)[C@H]2NC(=O)[C@H](NC(=O)[C@@H]4NC(=O)[C@H](CC(N)=O)NC(=O)[C@H](NC(=O)[C@@H](CC(C)C)NC)[C@H](O)c5ccc(c(Cl)c5)Oc5cc4cc(c5O[C@@H]4O[C@H](CO)[C@@H](O)[C@H](O)[C@H]4O[C@H]4C[C@](C)(N)[C@H](O)[C@H](C)O4)Oc4ccc(cc4Cl)[C@H]2O)c2ccc(O)c-3c2)cc1 (atropisomer, axis not shown) [Compound 350]",0.01 to 0.5 µg/mL,0.01 to 0.5 µg/mL,0.01 to 0.5 µg/mL,0.01 to 0.5 µg/mL,0.01 to 0.5 µg/mL,0.01 to 0.5 µg/mL,4 to 8 µg/mL,0.01 to 0.5 µg/mL,0.01 to 0.5 µg/mL,"MIC [10, 31]: 1 to 2 µg/mL; MIC [11, 32]: 0.01 to 0.5 µg/mL"
0.01 to 0.5 µg/mL,0.01 to 0.5 µg/mL,0.01 to 0.5 µg/mL,0.01 to 0.5 µg/mL,0.01 to 0.5 µg/mL,0.01 to 0.5 µg/mL,8 to 16 µg/mL,0.01 to 0.5 µg/mL,0.01 to 0.5 µg/mL,2 to 4 µg/mL,0.01 to 0.5 µg/mL,"CCCCCCc1ccc(S(=O)(=O)NCCCCCCNCc2c(O)cc3c(c2O)-c2cc(ccc2O)[C@H]2NC(=O)[C@@H]4NC(=O)[C@H](CC(N)=O)NC(=O)[C@H](NC(=O)[C@@H](CC(C)C)NC)[C@H](O)c5ccc(c(Cl)c5)Oc5cc4cc(c5O[C@@H]4O[C@H](CO)[C@@H](O)[C@H](O)[C@H]4O[C@H]4C[C@](C)(NC(C)=O)[C@H](O)[C@H](C)O4)Oc4ccc(cc4Cl)[C@@H](O)[C@H](NC2=O)C(=O)N[C@@H]3C(=O)O)cc1 (atropisomer, axis not shown) [Compound 363]",–,–,–,–,–,–,–,–,–,–
–,–,–,–,–,–,–,–,–,–,–,"CCOCCOCCNC(=O)Oc1cc(O)c2c(c1)[C@@H](C(=O)O)NC(=O)[C@H]1NC(=O)[C@H](NC(=O)[C@@H]3NC(=O)[C@H](CC(N)=O)NC(=O)[C@H](NC(=O)[C@@H](CC(C)C)NC)[C@H](O)c4ccc(c(Cl)c4)Oc4cc3cc(c4O[C@@H]3O[C@H](CO)[C@@H](O)[C@H](O)[C@H]3O[C@H]3C[C@](C)(N)[C@H](O)[C@H](C)O3)Oc3ccc(cc3Cl)[C@H]1O)c1ccc(O)c-2c1 (atropisomer, axis not shown) [Compound 353]",0.01 to 0.5 µg/mL,4 to 8 µg/mL,4 to 8 µg/mL,1 to 2 µg/mL,4 to 8 µg/mL,> 16 µg/mL,> 16 µg/mL,2 to 4 µg/mL,4 to 8 µg/mL,"MIC [10, 31]: > 16 µg/mL; MIC [11, 32]: 8 to 16 µg/mL"
